Assay results from ChEMBL document CHEMBL1201862, “PubChem BioAssay data set” (2004).
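1) Cells in 96-well plates. 2) Compound, 48 h, 5 concentrations. 3) Linear interpolation between surrounding doses. 4) Unreached endpoint = highest concentration. At the GI50, growth is halved.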 Calls of active or inactive are those of the source. Rule as the data show it: active = GI50 up to about 1.1 µM and inactive = higher. Starred links: 1 amine or outer side, 2 acyl side, 3 side chain; linkers in the order of their positions; H or OH if unused. Non-standard residues stand in square brackets, D forms with d. Residues, ends and D or L forms follow the SMILES beside them. X35 = C=CCC(O[*:1])C(=O)[*:2]; NMeV = CN[CH](C(=O)O)C(C)C; NMeA = CN[CH](C)C(=O)O; βAla = NCCC(=O)O

Key:
Assay in all cases: NCI-60 cell line screen, 48 h
[1] = system: EKVX
[2] = system: 786-0
[3] = system: SK-MEL-5
[4] = system: SF-539
[5] = system: NCI-H226
[6] = system: MDA-N
[7] = system: HOP-92
[8] = system: CAKI-1
[9] = system: HT-29
[10] = system: MOLT-4
[11] = system: RXF 393
[12] = system: UACC-62
[13] = system: OVCAR-4
[14] = system: IGROV-1
[15] = system: SK-MEL-2
[16] = system: U-251
[17] = system: SNB-75
[18] = system: OVCAR-5
[19] = system: CCRF-CEM
[20] = system: LOX IMVI

Measured: GI50

CC1=C(Nc2c(C)cc(O)cc2O)C(=O)C=c2oc3c(c21)C(C)=C(Nc1c(C)cc(O)cc1O)C(=O)C=3
inactive: [1] 47.5 µM | [2] 54.1 µM | [3] 17.2 µM | [4] 19.5 µM | [5] 43.9 µM | [6] 18.6 µM | [7] > 100 µM | [8] > 100 µM | [9] 28 µM | [10] 27.4 µM | [11] > 100 µM | [12] 37.2 µM | [13] 57.4 µM | [14] 30.1 µM | [15] 34.1 µM | [16] 37.8 µM | [17] 25.6 µM | [18] 47.5 µM

CC(C)[C@H]1C(=O)O[B@-](F)(c2ccccc2)/[N+]1=C\N(C)C
inactive: [1] > 100 µM | [2] > 100 µM | [3] > 100 µM | [5] > 100 µM | [6] > 100 µM | [7] > 100 µM | [9] > 100 µM | [19] > 100 µM | [10] > 100 µM | [12] > 100 µM | [20] > 100 µM | [13] 30.1 µM | [14] > 100 µM | [16] > 100 µM | [17] > 100 µM | [18] > 100 µM

CCOC(=O)C(C(=O)OCC)=C1SC(=N\c2ccccc2)/C(=N/c2ccccc2)N1c1ccccc1
inactive: [1] > 100 µM | [2] > 100 µM | [3] 52.1 µM | [4] > 100 µM | [5] > 100 µM | [6] > 100 µM | [7] 54 µM | [8] > 100 µM | [9] 82.2 µM | [19] 18.4 µM | [10] 13.3 µM | [11] 28.2 µM | [12] 53.6 µM | [14] > 100 µM | [15] > 100 µM | [16] > 100 µM | [17] > 100 µM | [18] > 100 µM

C=CCC1OC(=O)CCNC(=O)C(C)N(C)C(=O)C(C(C)C)N(C)C(=O)C(C(C)CC)NC(=O)C2CCCN2C1=O (configuration not stated) (cyclo([X35]PI[NMeV][NMeA][βAla]); configuration not given here)
inactive: [1] 3.23 µM | [2] 4.61 µM | [3] 2.44 µM | [4] 45.1 µM | [6] > 100 µM | [7] 21.7 µM | [8] 81.5 µM | [9] 3.91 µM | [19] 3.1 µM | [10] 2.11 µM | [12] 2.68 µM | [20] 1.85 µM | [13] 66.8 µM | [14] 7.06 µM | [15] 9.08 µM | [16] 49.5 µM | [17] 1.25 µM | [18] > 100 µM

C1=N\CCNCCNCC/N=C\c2ccc(cc2)OCc2cccc(n2)COc2ccc/1cc2
inactive: [1] > 100 µM | [2] > 100 µM | [3] 51.4 µM | [4] > 100 µM | [5] > 100 µM | [6] > 100 µM | [7] > 100 µM | [8] > 100 µM | [9] > 100 µM | [19] 27.6 µM | [10] 29 µM | [11] > 100 µM | [12] > 100 µM | [13] 68.5 µM | [14] > 100 µM | [15] > 100 µM | [16] > 100 µM | [17] 47.1 µM | [18] > 100 µM

COC(=O)C1(C#N)C(C)(C)N=C(c2ccccc2)C12CCCCC2 (configuration not stated)
inactive: [1] > 100 µM | [2] > 100 µM | [3] > 100 µM | [4] > 100 µM | [6] > 100 µM | [7] 53.2 µM | [8] > 100 µM | [9] > 100 µM | [19] > 100 µM | [10] 45.9 µM | [11] > 100 µM | [12] 76.9 µM | [20] > 100 µM | [13] > 100 µM | [14] > 100 µM | [15] > 100 µM | [16] > 100 µM | [18] > 100 µM

CC1(C)CC(=O)C(=CNc2nc(-c3ccc(Br)cc3)cs2)C(=O)C1
inactive: [1] 38.7 µM | [2] 25.5 µM | [3] 32.6 µM | [4] 24.8 µM | [5] 45.3 µM | [6] 37.8 µM | [7] 33 µM | [8] 24.9 µM | [9] 29.9 µM | [10] 27.9 µM | [20] 20.9 µM | [13] 37.5 µM | [14] 29.6 µM | [15] 19.4 µM | [16] 30.6 µM | [17] 6.35 µM | [18] 42.5 µM

COC(=O)NCCc1n[nH]c2c1C(=O)C=C(Nc1ccccc1)C2=O
inactive: [1] 27.3 µM | [2] 47.3 µM | [3] 17.9 µM | [4] 20.7 µM | [6] 17.9 µM | [7] 27.7 µM | [8] 46.1 µM | [9] 24.1 µM | [19] 13.7 µM | [10] 19.7 µM | [11] 41.2 µM | [12] 17.3 µM | [20] 15.5 µM | [13] 15.4 µM | [14] 24.5 µM | [15] 20.6 µM | [16] 15.2 µM | [17] 57.3 µM | [18] 29 µM

CC(=O)Oc1ccc(/C=C/C(=O)O[C@H]2CCCC[C@@H]2OC(=O)/C=C/c2ccc(OC(C)=O)c(OC(C)=O)c2)cc1OC(C)=O
inactive: [1] 17.1 µM | [2] 4.57 µM | [3] 4.69 µM | [4] 6.38 µM | [6] 8.97 µM | [7] 4.62 µM | [8] 5.41 µM | [9] 5.47 µM | [19] 2.75 µM | [10] 2.64 µM | [11] 11.1 µM | [12] 4.84 µM | [20] 2.49 µM | [13] 7.08 µM | [14] 4.09 µM | [15] 15.3 µM | [16] 9.25 µM | [17] 9.46 µM | [18] 12.3 µM

O=c1[nH]c2[nH]c(-c3ccc(Br)cc3)cc2c2ccccc12
inactive: [1] 5.58 µM | [2] 35.6 µM | [3] > 100 µM | [4] > 100 µM | [5] 43.5 µM | [6] > 100 µM | [8] 61.1 µM | [9] 35.6 µM | [10] 12 µM | [11] 24.7 µM | [12] > 100 µM | [20] > 10 µM | [13] 24.7 µM | [14] > 100 µM | [15] > 100 µM | [16] 28.8 µM | [17] 19.4 µM | [18] > 100 µM

CC1=C2CN(C(=O)OCC(C)C)CCC2C2=C(C(=O)c3ccccc3C2=O)C1C (configuration not stated)
inactive: [1] > 10 µM | [2] > 10 µM | [3] > 10 µM | [6] > 10 µM | [7] > 10 µM | [8] > 10 µM | [9] > 10 µM | [19] > 10 µM | [10] > 10 µM | [11] > 10 µM | [12] > 10 µM | [20] > 10 µM | [13] > 10 µM | [14] > 10 µM | [17] > 10 µM

O=C(Nc1ccc(Cl)cc1)c1cc2c(cc1Cl)Sc1nccn1S2(=O)=O
inactive: [1] 69 µM | [2] 29.6 µM | [3] 44.7 µM | [4] 50.2 µM | [5] 51.3 µM | [6] 28.8 µM | [8] 40.7 µM | [9] > 100 µM | [19] > 100 µM | [10] 27.9 µM | [11] 27.5 µM | [20] > 100 µM | [13] 37.3 µM | [14] 60.1 µM | [15] > 100 µM | [16] 10.7 µM | [17] 3.4 µM | [18] > 100 µM

O=C1CCC2(CCO1)OCCO2
inactive: [1] > 100 µM | [2] > 100 µM | [3] > 100 µM | [4] > 100 µM | [5] > 100 µM | [6] > 100 µM | [8] > 100 µM | [9] > 100 µM | [19] > 100 µM | [10] > 100 µM | [11] > 100 µM | [12] > 100 µM | [20] > 100 µM | [13] > 100 µM | [14] > 100 µM | [15] > 100 µM | [16] > 100 µM | [17] > 100 µM | [18] > 100 µM

O=c1[nH]nc(Cc2ccc([N+](=O)[O-])cc2)n1CCO
inactive: [1] > 100 µM | [2] > 100 µM | [3] > 100 µM | [4] > 100 µM | [5] > 100 µM | [6] > 100 µM | [7] > 100 µM | [8] > 100 µM | [9] > 100 µM | [12] > 100 µM | [20] > 100 µM | [13] > 100 µM | [14] > 100 µM | [15] > 100 µM | [16] > 100 µM | [18] > 100 µM

Cn1cc2c(=O)n3ncn(-c4ccc(Br)cc4)c3nc2n1
inactive: [1] > 100 µM | [2] > 100 µM | [3] 87.9 µM | [4] > 100 µM | [5] > 100 µM | [6] > 100 µM | [7] > 100 µM | [8] > 100 µM | [9] > 100 µM | [19] > 100 µM | [10] > 100 µM | [11] > 100 µM | [12] > 100 µM | [13] > 100 µM | [14] > 100 µM | [15] > 100 µM | [16] > 100 µM | [17] > 100 µM | [18] > 100 µM
